Laboratory results reported in US10941162B2, “Heterocyclic compounds and uses thereof” (Infinity Pharmaceuticals, Inc., priority 2014, dated 2021).

Columns and labels:
PI3K γ = PI3K γ (Homo sapiens (Human), UniProt P48736); test: PI3-Kinase in vitro IC50 assay, γ isoform; assay type: biochemical; details: for IC50: in vitro; for PI3K δ/PI3K γ IC50 (selectivity): ratio of PI3K δ IC50 to PI3K γ IC50
From the text: (§1) A PI3-Kinase HTRF® assay kit (cat No. 33-016) purchased from Millipore Corporation is used to screen compounds provided herein. This assay uses specific, high affinity binding of the GRP1 pleckstrin homology (PH) domain to PIP3, the product of a Class 1A or 1B PI3 Kinase acting on its physiological substrate PIP2. During the detection phase of the assay, a complex is generated between the GST-tagged PH domain and biotinylated short chain PIP3. The biotinylated PIP3 and the GST-tagged PH domain recruited fluorophores (Streptavidin-Allophycocyanin and Europium-labeled anti-GST respectively) to form the fluorescence resonance energy transfer (FRET) architecture, generating a stable time-resolved FRET signal. The FRET complex is disrupted in a competitive manner by non-biotinylated PIP3, a product formed in the PI3 Kinase assay.
(§2) PI3 Kinase α, β, γ or δ activity is assayed using the PI3 Kinase HTRF®, assay kit (catalogue No. 33-016) purchased from Millipore Corporation. Purified recombinant PI3Kα (catalogue No. 14-602-K), PI3Kβ (catalogue No. 14-603-K), PI3Kγ (catalogue No. 14-558-K), and PI3Kδ (catalogue No. 14-604-K) are obtained from Millipore Corporation. Purified recombinant PI3K enzyme is used to catalyze the phosphorylation of phosphatidylinositol 4,5-bisphosphate (PIP2 at 10 μM) to phosphatidylinositol 3,4,5-trisphosphate (PIP3) in the presence of 10 μM ATP. The assay is carried out in 384-well format and detected using a Perkin Elmer EnVision Xcite Multilabel Reader. Emission ratios are converted into percent inhibitions and imported into GraphPad Prism software. The concentration necessary to achieve inhibition of enzyme activity by 50% (IC50) is calculated using concentrations ranging from 20 μM to 0.1 nM (12-point curve), IC50 values are determined using a nonlinear regression model available in GraphPad Prism 5.
(§3) Promega ADP-Glo Max assay kit (Cat. No. V7002) can be utilized to determine IC50 values for α, β, δ and γ isoforms of human Class I PI3 kinases (Millipore). Samples of kinase (20 nM α or δ, 40 nM β or γ isoform) are incubated with compound for 15 minutes at room temperature in reaction buffer (15 mM HEPES pH 7.4, 20 mM NaCl, 1 mM EGTA, 0.02% Tween 20, 10 mM MgCl2, 0.2 mg/mL bovine-γ-globulins) followed by addition of ATP/diC8-PtdInsP mixture to give final concentrations of 3 mM ATP and 500 uM diC8-PtdInsP. Reactions are incubated at room temperature for 2 hours followed by addition of 25 uL of stop solution. After a 40-minute incubation at room temperature, 50 uL of Promega detection mix is added followed by incubation for 1 hour at room temperature. Plates are then read on Envision plate reader in luminescence mode. Data are converted to % inhibition using the following equation below:
(§4) [formula] where S is the sample luminescence, Pos is a positive control without added PI3K, Neg is the negative control without added compound. Data are then plotted as % inhibition vs compound concentration. Data fit to 4 parameter logistic equation to determine IC50 values: […]

p110 γ = p110 γ (Mus musculus (Mouse), UniProt Q9JHG7); test: Raw264.7 p110 γ assay (PI3K-γ selective cellular assay, phospho-AKT); assay type: cell-based; details: for IC50: RAW264.7 cells stimulated with C5a, phospho-AKT; for RAJI δ/Raw264.7 γ IC50 (selectivity): ratio of RAJI p110 δ IC50 to Raw264.7 p110 γ IC50
From the text: A compound's ability in selectively inhibiting PI3K-γ can be assessed using RAW264.7 macrophages. Briefly, serum-starved RAW264.7 cells are stimulated with a known GPCR agonist C5a. See, e.g., Camps et al., Nature Medicine (2005) 11(9):936-943. Cells can be treated with test compounds prior to, simultaneously with, or subsequent to the stimulation by C5a. RAW 264.7 cells respond to the complement component fragment C5a through activation of the C5a receptor, and the C5a receptor activates macrophages and induces cell migration. Test compounds' ability to inhibit C5a-mediated AKT phosphorylation is indicative of selective inhibition of PI3K-γ. Thus, by monitoring the reduction of phospho-AKT in stimulated RAW 264.7 cells (using for example, phospho-AKT antibodies), a compound's potential efficacy in selectively inhibiting PI3Kγ can be assessed.
Certain compounds provided herein were tested in RAW 264.7 cell model using procedures as described above.

p110 δ = p110 δ (Homo sapiens (Human), UniProt O00329); test: RAJI p110 δ assay (PI3K-δ selective cellular assay, phospho-AKT); assay type: cell-based; details: RAJI cells stimulated with anti-human IgM
From the text: A compound's ability in selectively inhibiting PI3K-δ can be assessed using RAJI cells, i.e., B lymphocyte cells derived from lymphoma patients. Briefly, serum-starved RAJI cells are stimulated with anti-human IgM, thereby causing signaling through the B-cell receptors, as described in, for example, He et al., Leukemia Research (2009) 33: 798-802. B-cell receptor signaling is important for the activation, differentiation, and survival of B cells and certain B-cell derived cancers. Reduction of phospho-AKT is indicative of compounds that may inhibit B-cell proliferation and function in certain diseases. By monitoring the reduction of phospho-AKT in stimulated RAJI cells (using for example, phospho-AKT antibodies), a compound's potential efficacy in selectively inhibiting PI3KS can be assessed.

PI3K δ = PI3K δ (Homo sapiens (Human), UniProt O00329); test: PI3-Kinase in vitro IC50 assay, δ isoform; assay type: biochemical
From the text: as §1, §2, §3, §4

PI3K β = PI3K β (Homo sapiens, UniProt P42338); test: PI3-Kinase in vitro IC50 assay, β isoform; assay type: biochemical
From the text: A PI3-Kinase HTRF® assay kit (cat No. 33-016) purchased from Millipore Corporation is used to screen compounds provided herein. This assay uses specific, high affinity binding of the GRP1 pleckstrin homology (PH) domain to PIP3, the product of a Class 1A or 1B PI3 Kinase acting on its physiological substrate PIP2. During the detection phase of the assay, a complex is generated between the GST-tagged PH domain and biotinylated short chain PIP3. The biotinylated PIP3 and the GST-tagged PH domain recruited fluorophores (Streptavidin-Allophycocyanin and Europium-labeled anti-GST respectively) to form the fluorescence resonance energy transfer (FRET) architecture, generating a stable time-resolved FRET signal. The FRET complex is disrupted in a competitive manner by non-biotinylated PIP3, a product formed in the PI3 Kinase assay. PI3 Kinase α, β, γ or δ activity is assayed using the PI3 Kinase HTRF®, assay kit (catalogue No. 33-016) purchased from Millipore Corporation. Purified recombinant PI3Kα (catalogue No. 14-602-K), PI3Kβ (catalogue No. 14-603-K), PI3Kγ (catalogue No. 14-558-K), and PI3Kδ (catalogue No. 14-604-K) are obtained from Millipore Corporation. Purified recombinant PI3K enzyme is used to catalyze the phosphorylation of phosphatidylinositol 4,5-bisphosphate (PIP2 at 10 μM) to phosphatidylinositol 3,4,5-trisphosphate (PIP3) in the presence of 10 μM ATP. The assay is carried out in 384-well format and detected using a Perkin Elmer EnVision Xcite Multilabel Reader. Emission ratios are converted into percent inhibitions and imported into GraphPad Prism software. The concentration necessary to achieve inhibition of enzyme activity by 50% (IC50) is calculated using concentrations ranging from 20 μM to 0.1 nM (12-point curve), IC50 values are determined using a nonlinear regression model available in GraphPad Prism 5. Promega ADP-Glo Max assay kit (Cat. No. V7002) can be utilized to determine IC50 values for α, β, δ and γ isoforms of human Class I PI3 kinases (Millipore). Samples of kinase (20 nM α or δ, 40 nM β or γ isoform) are incubated with compound for 15 minutes at room temperature in reaction buffer (15 mM HEPES pH 7.4, 20 mM NaCl, 1 mM EGTA, 0.02% Tween 20, 10 mM MgCl2, 0.2 mg/mL bovine-γ-globulins) followed by addition of ATP/diC8-PtdInsP mixture to give final concentrations of 3 mM ATP and 500 uM diC8-PtdInsP. Reactions are incubated at room temperature for 2 hours followed by addition of 25 uL of stop solution. After a 40-minute incubation at room temperature, 50 uL of Promega detection mix is added followed by incubation for 1 hour at room temperature. Plates are then read on Envision plate reader in luminescence mode. Data are converted to % inhibition using the following equation below: [formula] where S is the sample luminescence, Pos is a positive control without added PI3K, Neg is the negative control without added compound. Data are then plotted as % inhibition vs compound concentration. Data fit to 4 parameter logistic equation to determine IC50 values: [formula]

PI3K α = PI3K α (Homo sapiens (Human), UniProt P42336); test: PI3-Kinase in vitro IC50 assay, α isoform; assay type: biochemical
From the text: as §1, §2, §3, §4

Chain of PI3K γ (P48736 whole entry, the tested form may be a part, canonical isoform): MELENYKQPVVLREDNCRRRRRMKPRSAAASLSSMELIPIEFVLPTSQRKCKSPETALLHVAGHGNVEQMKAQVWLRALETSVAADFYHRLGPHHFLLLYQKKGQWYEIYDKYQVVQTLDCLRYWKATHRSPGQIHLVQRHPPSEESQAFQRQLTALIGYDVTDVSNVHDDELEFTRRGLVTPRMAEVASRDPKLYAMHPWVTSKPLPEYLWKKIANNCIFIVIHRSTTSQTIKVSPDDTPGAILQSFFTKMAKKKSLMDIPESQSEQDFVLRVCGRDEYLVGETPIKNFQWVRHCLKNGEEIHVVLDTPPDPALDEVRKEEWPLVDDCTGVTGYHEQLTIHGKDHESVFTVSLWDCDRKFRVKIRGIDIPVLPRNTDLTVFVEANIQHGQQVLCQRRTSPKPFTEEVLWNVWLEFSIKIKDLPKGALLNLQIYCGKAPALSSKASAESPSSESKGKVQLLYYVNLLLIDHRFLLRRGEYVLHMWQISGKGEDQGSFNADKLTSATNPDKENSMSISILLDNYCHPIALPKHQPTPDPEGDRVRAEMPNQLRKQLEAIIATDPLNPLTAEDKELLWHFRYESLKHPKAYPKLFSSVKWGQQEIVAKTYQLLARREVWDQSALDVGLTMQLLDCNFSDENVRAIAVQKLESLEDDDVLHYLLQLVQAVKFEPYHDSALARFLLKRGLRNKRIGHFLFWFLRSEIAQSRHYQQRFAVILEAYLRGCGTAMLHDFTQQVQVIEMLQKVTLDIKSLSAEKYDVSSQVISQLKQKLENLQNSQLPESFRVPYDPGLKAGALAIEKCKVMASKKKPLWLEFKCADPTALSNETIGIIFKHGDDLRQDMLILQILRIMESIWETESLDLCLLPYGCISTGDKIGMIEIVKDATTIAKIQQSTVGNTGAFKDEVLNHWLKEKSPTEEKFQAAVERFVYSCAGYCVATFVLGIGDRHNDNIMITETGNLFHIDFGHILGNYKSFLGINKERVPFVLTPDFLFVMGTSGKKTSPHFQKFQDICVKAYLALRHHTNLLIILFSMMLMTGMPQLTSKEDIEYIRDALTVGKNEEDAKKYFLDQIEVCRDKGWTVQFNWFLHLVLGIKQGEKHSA
Chain of PI3K β (P42338 whole entry, looked up, the tested form may be a part, canonical isoform): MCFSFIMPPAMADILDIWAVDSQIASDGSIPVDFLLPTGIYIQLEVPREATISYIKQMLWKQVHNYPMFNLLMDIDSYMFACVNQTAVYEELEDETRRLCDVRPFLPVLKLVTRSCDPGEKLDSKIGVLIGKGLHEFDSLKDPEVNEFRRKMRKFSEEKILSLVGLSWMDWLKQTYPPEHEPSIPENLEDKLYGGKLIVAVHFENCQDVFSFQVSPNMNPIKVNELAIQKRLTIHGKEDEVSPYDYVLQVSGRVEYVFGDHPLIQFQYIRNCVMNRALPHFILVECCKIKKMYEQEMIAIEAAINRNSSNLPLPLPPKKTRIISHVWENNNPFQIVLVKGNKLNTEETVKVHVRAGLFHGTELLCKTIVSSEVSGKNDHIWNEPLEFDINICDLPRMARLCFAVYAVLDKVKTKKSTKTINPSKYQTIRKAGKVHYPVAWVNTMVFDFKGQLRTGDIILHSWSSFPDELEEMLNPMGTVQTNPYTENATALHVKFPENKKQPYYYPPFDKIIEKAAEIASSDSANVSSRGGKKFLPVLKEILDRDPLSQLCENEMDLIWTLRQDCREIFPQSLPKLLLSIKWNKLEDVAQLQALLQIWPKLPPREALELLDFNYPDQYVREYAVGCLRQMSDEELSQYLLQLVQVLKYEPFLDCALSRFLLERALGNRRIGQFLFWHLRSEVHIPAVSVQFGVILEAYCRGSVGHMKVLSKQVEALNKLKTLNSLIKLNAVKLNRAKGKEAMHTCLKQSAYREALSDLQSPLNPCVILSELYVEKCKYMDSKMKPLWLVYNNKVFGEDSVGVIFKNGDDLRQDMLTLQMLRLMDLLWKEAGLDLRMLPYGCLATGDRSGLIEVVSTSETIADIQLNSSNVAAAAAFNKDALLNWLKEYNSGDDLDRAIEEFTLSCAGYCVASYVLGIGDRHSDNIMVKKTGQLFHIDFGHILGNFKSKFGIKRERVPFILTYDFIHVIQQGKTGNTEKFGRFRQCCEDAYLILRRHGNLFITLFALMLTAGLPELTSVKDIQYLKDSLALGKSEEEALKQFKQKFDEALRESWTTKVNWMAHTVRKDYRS
Chain of p110 γ (Q9JHG7 whole entry, the tested form may be a part): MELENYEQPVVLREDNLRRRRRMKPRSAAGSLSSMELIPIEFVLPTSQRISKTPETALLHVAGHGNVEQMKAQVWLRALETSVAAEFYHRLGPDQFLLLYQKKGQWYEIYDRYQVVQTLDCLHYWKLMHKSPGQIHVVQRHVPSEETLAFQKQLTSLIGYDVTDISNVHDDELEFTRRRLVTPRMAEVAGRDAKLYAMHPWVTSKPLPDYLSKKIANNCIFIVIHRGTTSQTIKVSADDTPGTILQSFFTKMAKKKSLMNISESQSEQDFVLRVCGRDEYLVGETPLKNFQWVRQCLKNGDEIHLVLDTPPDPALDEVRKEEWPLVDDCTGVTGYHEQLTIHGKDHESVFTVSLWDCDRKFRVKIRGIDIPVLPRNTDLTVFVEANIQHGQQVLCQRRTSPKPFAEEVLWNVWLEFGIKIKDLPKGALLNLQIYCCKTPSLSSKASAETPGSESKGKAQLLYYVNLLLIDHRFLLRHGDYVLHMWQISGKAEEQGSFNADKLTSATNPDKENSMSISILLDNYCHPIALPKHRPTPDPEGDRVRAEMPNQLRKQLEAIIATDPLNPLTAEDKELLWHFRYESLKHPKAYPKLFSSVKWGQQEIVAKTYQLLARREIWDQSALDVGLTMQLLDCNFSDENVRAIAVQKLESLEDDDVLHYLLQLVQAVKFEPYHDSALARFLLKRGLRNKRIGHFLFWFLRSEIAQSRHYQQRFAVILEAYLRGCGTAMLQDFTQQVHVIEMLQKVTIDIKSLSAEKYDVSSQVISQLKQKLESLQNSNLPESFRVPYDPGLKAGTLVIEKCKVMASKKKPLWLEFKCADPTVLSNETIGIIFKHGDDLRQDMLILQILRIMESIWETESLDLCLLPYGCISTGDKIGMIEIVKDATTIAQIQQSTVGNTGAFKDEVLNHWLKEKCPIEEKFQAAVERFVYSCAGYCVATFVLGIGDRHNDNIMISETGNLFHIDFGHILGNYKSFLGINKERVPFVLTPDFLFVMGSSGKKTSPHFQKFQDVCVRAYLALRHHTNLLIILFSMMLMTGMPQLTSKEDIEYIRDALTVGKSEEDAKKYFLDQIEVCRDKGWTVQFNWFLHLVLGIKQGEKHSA
Chain of PI3K α (P42336 whole entry, canonical isoform): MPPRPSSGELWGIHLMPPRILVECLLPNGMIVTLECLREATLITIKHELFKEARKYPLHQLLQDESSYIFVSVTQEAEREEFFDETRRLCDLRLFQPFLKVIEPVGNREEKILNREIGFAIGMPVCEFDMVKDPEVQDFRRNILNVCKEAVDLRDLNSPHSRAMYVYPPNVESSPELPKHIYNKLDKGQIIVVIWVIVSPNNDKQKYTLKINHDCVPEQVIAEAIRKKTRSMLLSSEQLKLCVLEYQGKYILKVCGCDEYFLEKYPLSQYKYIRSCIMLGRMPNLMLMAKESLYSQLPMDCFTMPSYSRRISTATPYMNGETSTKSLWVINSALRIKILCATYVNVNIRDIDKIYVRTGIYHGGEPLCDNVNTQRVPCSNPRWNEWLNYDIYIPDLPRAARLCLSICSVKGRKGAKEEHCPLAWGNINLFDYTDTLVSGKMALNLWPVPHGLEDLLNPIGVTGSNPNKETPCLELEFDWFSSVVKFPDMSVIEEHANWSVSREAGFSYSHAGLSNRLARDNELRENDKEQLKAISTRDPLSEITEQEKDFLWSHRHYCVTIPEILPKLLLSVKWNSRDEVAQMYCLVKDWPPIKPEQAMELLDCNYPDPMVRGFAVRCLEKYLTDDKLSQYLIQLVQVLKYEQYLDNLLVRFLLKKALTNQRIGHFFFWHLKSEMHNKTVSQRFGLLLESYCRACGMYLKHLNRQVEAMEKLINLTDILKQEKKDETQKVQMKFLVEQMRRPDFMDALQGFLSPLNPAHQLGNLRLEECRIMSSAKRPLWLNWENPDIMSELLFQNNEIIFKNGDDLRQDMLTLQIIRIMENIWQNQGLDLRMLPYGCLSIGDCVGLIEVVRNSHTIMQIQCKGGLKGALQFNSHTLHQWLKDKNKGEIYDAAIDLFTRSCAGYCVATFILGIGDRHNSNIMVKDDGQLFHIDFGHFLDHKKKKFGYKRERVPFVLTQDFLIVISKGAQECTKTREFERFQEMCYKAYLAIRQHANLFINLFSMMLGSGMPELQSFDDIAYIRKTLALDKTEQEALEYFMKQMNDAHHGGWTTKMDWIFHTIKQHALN
Chain of PI3K α (P27986 whole entry partner, canonical isoform): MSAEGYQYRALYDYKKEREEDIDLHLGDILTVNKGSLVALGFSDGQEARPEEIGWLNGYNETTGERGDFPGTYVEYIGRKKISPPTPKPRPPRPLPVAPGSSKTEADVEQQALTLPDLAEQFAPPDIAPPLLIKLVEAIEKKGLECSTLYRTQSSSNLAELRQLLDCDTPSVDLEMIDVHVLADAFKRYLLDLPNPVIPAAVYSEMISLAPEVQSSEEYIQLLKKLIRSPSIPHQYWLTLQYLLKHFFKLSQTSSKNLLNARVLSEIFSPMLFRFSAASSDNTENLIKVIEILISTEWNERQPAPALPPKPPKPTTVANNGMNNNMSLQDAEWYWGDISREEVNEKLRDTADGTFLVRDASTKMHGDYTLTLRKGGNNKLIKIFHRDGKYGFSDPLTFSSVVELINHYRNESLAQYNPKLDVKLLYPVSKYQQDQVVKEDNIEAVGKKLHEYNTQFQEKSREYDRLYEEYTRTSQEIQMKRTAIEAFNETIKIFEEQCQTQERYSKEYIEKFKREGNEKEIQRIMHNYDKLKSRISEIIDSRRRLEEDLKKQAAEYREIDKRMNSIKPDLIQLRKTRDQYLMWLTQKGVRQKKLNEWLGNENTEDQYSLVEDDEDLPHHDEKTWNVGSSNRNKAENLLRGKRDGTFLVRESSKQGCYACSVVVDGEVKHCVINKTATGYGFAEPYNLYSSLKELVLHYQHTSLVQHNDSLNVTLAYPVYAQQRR

Compound	IC50 (PI3K γ) [µM]	PI3K δ/PI3K γ IC50 (selectivity) (PI3K γ)	IC50 (p110 γ) [µM]	RAJI δ/Raw264.7 γ IC50 (selectivity) (p110 γ)	IC50 (p110 δ) [µM]	IC50 (PI3K δ) [µM]	IC50 (PI3K β) [µM]	IC50 (PI3K α) [µM]
C[C@H](NC(=O)c1c(N)nn2cccnc12)c1oc2cccc(C#Cc3cnn(C)c3)c2c(=O)c1-c1ccccc1 [Compound 103S]	0.1 to 0.5	X (X = 10 to <50)	0.001 to 0.05	Y (Y = 50 to <850)	1 to 10	5 to 10	5 to 10	5 to 10
C[C@@H](NC(=O)c1c(N)nn2cccnc12)c1cc2cccc(C#Cc3cnn(C)c3)c2nc1-c1ccccc1 [Compound 175R]	> 5	V (V = 0.1 to 1)				5 to 10	5 to 10	5 to 10
C[C@H](NC(=O)c1c(N)nn2cccnc12)c1nc2cccc(C#Cc3cnn(C)c3)c2cc1-c1ccccc1 [Compound 181S]	> 5	V (V = 0.1 to 1)	0.1 to 10	Y (Y = 50 to <850)	1 to 10	5 to 10	5 to 10	5 to 10
C[C@@H](NC(=O)c1c(N)nn2cccnc12)c1oc2cccc(C#Cc3cnn(C)c3)c2c(=O)c1-c1ccccc1 [Compound 103R]	> 5	V (V = 0.1 to 1)	0.1 to 10	X (X = 10 to <50)	1 to 10	5 to 10	5 to 10	5 to 10
C[C@H](NC(=O)c1c(N)nn2cccnc12)c1cc2cccc(C#Cc3cnn(C)c3)c2nc1-c1ccccc1 [Compound 175S]	0.1 to 0.5	X (X = 10 to <50)	0.001 to 0.05	W (W = >1 to <10)	0.1 to 0.5	5 to 10	5 to 10	5 to 10
C[C@@H](NC(=O)c1c(N)nn2cccnc12)c1nc2cccc(C#Cc3cnn(C)c3)c2cc1-c1ccccc1 [Compound 181R]	> 5	V (V = 0.1 to 1)	0.1 to 10	V (V = 0.1 to 1)	1 to 10	5 to 10	5 to 10	5 to 10
CC(NC(=O)c1c(N)nn2cccnc12)c1oc2cccc(C#Cc3cnn(C)c3)c2c(=O)c1-c1ccccc1 (centres unmarked) [Compound 103]	1 to 5	W (W = >1 to <10)	0.05 to 0.1	X (X = 10 to <50)	1 to 10	5 to 10	5 to 10	5 to 10
